ChEMBL document CHEMBL1152838, “QSAR study of antioxidant activity of wine polyphenols” (Eur J Med Chem, 2009)
pIC50: −log10 of the molar value.

Tests used:
Liver microsomes = test: Antioxidant activity in Wistar rat liver microsomes assessed as inhibition of lipid peroxidation by TBA assay; assay type: functional, Microsome
[1] = ABTS radical scavenging activity assessed as Trolox equivalent antioxidant capacity; assay type: physicochemical

Row | SMILES | pIC50 (Liver microsomes) | Activity [1] [mmol/L]
1 | Oc1cc(O)c2c(c1)O[C@H](c1ccc(O)c(O)c1)[C@H](O)C2 [(-)-EPICATECHIN] | 4.60 | 0.99
2 | O=C(O)/C=C/c1ccc(O)c(O)c1 [CAFFEIC ACID] |  | 1.01
3 | Oc1cc(O)c2c(c1)OC(c1ccc(O)c(O)c1)C(O)C2 (stereo not drawn) [CATECHIN] | 4.29 | 
4 | COc1cc(/C=C/C(=O)O)ccc1O [FERULATE] |  | 0.23
5 | O=C(O)c1cc(O)c(O)c(O)c1 [GALLIC ACID] |  | 1.98
6 | O=C1C[C@@H](c2ccc(O)cc2)Oc2cc(O)cc(O)c21 [NARINGENIN] | 4.00 | 
7 | O=c1c(O)c(-c2ccc(O)c(O)c2)oc2cc(O)cc(O)c12 [QUERCETIN] | 5.07 | 1.14

Now from value to molecule:

Row | pIC50 (Liver microsomes) | Activity [1] [mmol/L] | SMILES
8 | 4.00 |  | O=c1cc(-c2ccc(O)cc2)oc2cc(O)cc(O)c12 [APIGENIN]
9 |  | 0.57 | Oc1cc(O)c2c(c1)O[C@H](c1ccc(O)c(O)c1)[C@@H](O)C2 [CATECHIN]
10 | 4.72 | 0.79 | O=c1c(O)c(-c2ccc(O)cc2)oc2cc(O)cc(O)c12 [KAEMPFEROL]
11 | 4.64 | 0.83 | O=c1c(O)c(-c2ccc(O)cc2O)oc2cc(O)cc(O)c12 [MORIN]
12 | 4.98 | 1.02 | O=c1c(O)c(-c2cc(O)c(O)c(O)c2)oc2cc(O)cc(O)c12 [MYRICETIN]
13 |  | 0.4 | Oc1ccc(/C=C/c2cc(O)cc(O)c2)cc1 [RESVERATROL]
